Tested on: human liver microsomes, compound remaining, LC-MS
Assay: human microsomal compound turnover – biochemical, with and without NADPH, LC-MS, set 2, ADME assay (AID 624452);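 further: compound left measured after 60 min microsomal incubation at 37 °C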
Conditions: at 1 µM; for percent remaining without NADPH: measured here: stability without NADPH control

## N#C/C(=C\c1ccc([N+](=O)[O-])o1)c1nc2ccccc2[nH]1
  percent remaining with NADPH: 0.29%
  percent remaining without NADPH: 52.4%

## Cc1ccc(C)c(OCCn2cc(C(=O)O)c3ccccc32)c1
  percent remaining with NADPH: 35.8%
  percent remaining without NADPH: 66.7%

## CC[C@H]1CN2CCc3cc(OC)c(OC)cc3[C@@H]2C[C@@H]1C[C@H]1NCCc2cc(OC)c(OC)cc21
  percent remaining with NADPH: 45.4%
  percent remaining without NADPH: 89.3%

## COc1ccc(OC)c(-c2nnc3n2N=C(c2ccc(OC)c(OC)c2)CS3)c1
  percent remaining with NADPH: 5.35%
  percent remaining without NADPH: 79.3%

## CCCc1nc2c(=O)n(C)c(=O)nc-2n(C)n1
  percent remaining with NADPH: 65.6%
  percent remaining without NADPH: 61.5%

## O=S(=O)(NC1CCCCC1N1CCOCC1)c1ccc(Cl)cc1 (stereo not given)
  percent remaining with NADPH: 0.11%
  percent remaining without NADPH: 78.2%

## COc1nc(-c2ccccc2)nnc1-c1ccccc1
  percent remaining with NADPH: 8.41%
  percent remaining without NADPH: 59.3%

## CN(C)c1nc(N)nc(CSc2nnnn2-c2cccc3ccccc23)n1
  percent remaining with NADPH: 0.13%
  percent remaining without NADPH: 77.6%

## O=C(O)c1cccnc1SCCc1ccccc1
  percent remaining with NADPH: 61.4%
  percent remaining without NADPH: 74.9%

## CCCc1cc(C(=O)N(C2CCCCC2)C2CCCCC2)no1
  percent remaining with NADPH: 5.27%
  percent remaining without NADPH: 57.6%

Source: PubChem BioAssay AID624452 (Sanford-Burnham Center for Chemical Genomics, 2012)
